Results taken from US6737383B1, “Herbicidal oxadiazolidines” (priority 1999, dated 2004).

How the values were obtained:
bamyardgrass = assay: Test B flood test barnyardgrass; type: in vivo, Echinochloa crus-galli
Outline: (§1)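 Each value is a visual injury score relative to controls, with 10 meaning complete control and 0 no effect. Evaluation took place twelve to sixteen days after the 2-leaf-stage plants were treated and kept in the greenhouse.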

soybean = assay: Test B pre/postemergence soybean; type: in vivo, Glycine max
Outline: (§2)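 Response is a visual 0-to-10 score relative to untreated plants, where 0 means no effect and 10 means complete control, taken twelve to sixteen days after application. Treatments went onto soil at planting and onto foliage of 1- to 4-leaf plants, using a surfactant-containing non-phytotoxic solvent.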

rice = assay: Test B flood test rice; type: in vivo, Oryza sativa
Outline: as §1

morningglory = assay: Test B pre/postemergence morningglory; type: in vivo, Ipomoea hederacea
Outline: as §2

crabgrass = assay: Test B pre/postemergence crabgrass; type: in vivo, Digitaria sanguinalis
Outline: as §2

duck salad = assay: Test B flood test duck salad; type: in vivo, Heteranthera limosa
Outline: as §1

pigweed = assay: Test B pre/postemergence pigweed; type: in vivo, Amaranthus retroflexus
Outline: as §2

wheat = assay: Test B pre/postemergence wheat; type: in vivo, Triticum aestivum
Outline: as §2

cocklebur = assay: Test B pre/postemergence cocklebur; type: in vivo, Xanthium strumarium
Outline: as §2

sugar beet = assay: Test B pre/postemergence sugar beet; type: in vivo, Beta vulgaris
Outline: as §2

purple nutsedge = assay: Test B pre/postemergence purple nutsedge; type: in vivo, Cyperus rotundus
Outline: as §2

rape = assay: Test B pre/postemergence rape; type: in vivo, Brassica napus
Outline: as §2

corn = assay: Test B pre/postemergence corn; type: in vivo, Zea mays
Outline: as §2

wild oat = assay: Test B pre/postemergence wild oat; type: in vivo, Avena fatua
Outline: as §2

giant foxtail = assay: Test B pre/postemergence giant foxtail; type: in vivo, Setaria faberii
Outline: as §2

velvetleaf = assay: Test B pre/postemergence velvetleaf; type: in vivo, Abutilon theophrasti
Outline: as §2

[1] = Rate 62 g/ha, flood test species, Pre-emergence, visual evaluation after twelve to sixteen days
[2] = Rate 125 g/ha, under heading Pre-emergence, flood test species, visual evaluation after twelve to sixteen days
[3] = Rate 250 g/ha, Pre-emergence (flood test species), scale 0 to 10, 0 is no effect, 10 is complete control
[4] = Rate 500 g/ha, Pre-emergence section of Table B, 0 to 10 scale (0 no effect, 10 complete control)
[5] = Postemergence, Rate 62 g/ha, scale 0 to 10, 0 is no effect, 10 is complete control
[6] = Postemergence, Rate 125 g/ha, scale of 0 to 10 where 0 is no effect and 10 is complete control
[7] = Preemergence, Rate 62 g/ha, scale of 0 to 10 where 0 is no effect and 10 is complete control
[8] = Preemergence, Rate 125 g/ha, scale of 0 to 10 where 0 is no effect and 10 is complete control
[9] = Preemergence, Rate 250 g/ha, scale 0 to 10 (0 no effect, 10 complete control)
[10] = Preemergence, Rate 500 g/ha, scale of 0 to 10 where 0 is no effect and 10 is complete control
[11] = Postemergence, Rate 250 g/ha, scale of 0 to 10, 0 is no effect, 10 is complete control
[12] = Rate 500 g/ha, Postemergence, scale 0 to 10, 0 is no effect, 10 is complete control

CC[C@@H](C)n1c(=O)on(C(=O)N(c2ccc(Cl)cc2)C(C)C)c1=O [Compound 665]
Plant response rating, Barnyardgrass (0 to 10 scale, 0 is no effect, 10 is complete control) (bamyardgrass; [1]): 0 | Barnyardgrass plant response rating (0 to 10 scale, 0 is no effect, 10 is complete control) (bamyardgrass; [2]): 0 | Barnyardgrass plant response rating (bamyardgrass; [3]): 2 | Barnyardgrass plant response rating (bamyardgrass; [4]): 6 | Plant response rating, Soybean (soybean; [5]): 2 | Soybean plant response rating (soybean; [6]): 2 | Soybean plant response rating (soybean; [7]): 0 | Soybean plant response rating (soybean; [8]): 0 | Plant response rating, Soybean (soybean; [9]): 0 | Plant response rating, Soybean (soybean; [10]): 2 | Plant response rating, Rice (0 to 10 scale, 0 is no effect, 10 is complete control) (rice; [1]): 0 | Rice plant response rating (0 to 10 scale, 0 is no effect, 10 is complete control) (rice; [2]): 0 | Rice plant response rating (rice; [3]): 0 | Rice plant response rating (rice; [4]): 0 | Plant response rating, Morningglory (morningglory; [5]): 4 | Morningglory plant response rating (morningglory; [6]): 6 | Morningglory plant response rating (morningglory; [11]): 6 | Morningglory plant response rating (morningglory; [7]): 0 | Morningglory plant response rating (morningglory; [8]): 0 | Plant response rating, Morningglory (morningglory; [9]): 0 | Plant response rating, Morningglory (morningglory; [10]): 4 | Morningglory plant response rating (morningglory; [12]): 8 | Plant response rating, Crabgrass (crabgrass; [5]): 1 | Crabgrass plant response rating (crabgrass; [6]): 7 | Crabgrass plant response rating (crabgrass; [11]): 9 | Crabgrass plant response rating (crabgrass; [7]): 6 | Crabgrass plant response rating (crabgrass; [8]): 8 | Plant response rating, Crabgrass (crabgrass; [9]): 9 | Plant response rating, Crabgrass (crabgrass; [10]): 10 | Crabgrass plant response rating (crabgrass; [12]): 9 | Plant response rating, Ducksalad (0 to 10 scale, 0 is no effect, 10 is complete control) (duck salad; [1]): 0 | Ducksalad plant response rating (0 to 10 scale, 0 is no effect, 10 is complete control) (duck salad; [2]): 0 | Ducksalad plant response rating (duck salad; [3]): 0 | Ducksalad plant response rating (duck salad; [4]): 0 | Plant response rating, Redroot pigweed (pigweed; [5]): 3 | Redroot pigweed plant response rating (pigweed; [6]): 3 | Redroot pigweed plant response rating (pigweed; [7]): 7 | Redroot pigweed plant response rating (pigweed; [8]): 8 | Plant response rating, Redroot pigweed (pigweed; [9]): 9 | Plant response rating, Redroot pigweed (pigweed; [10]): 10 | Redroot pigweed plant response rating (pigweed; [12]): 7 | Plant response rating, Wheat (wheat; [5]): 0 | Wheat plant response rating (wheat; [6]): 0 | Wheat plant response rating (wheat; [7]): 0 | Wheat plant response rating (wheat; [8]): 3 | Plant response rating, Wheat (wheat; [9]): 4 | Plant response rating, Wheat (wheat; [10]): 4 | Wheat plant response rating (wheat; [12]): 4 | Plant response rating, Cocklebur (cocklebur; [5]): 0 | Cocklebur plant response rating (cocklebur; [6]): 0 | Cocklebur plant response rating (cocklebur; [11]): 0 | Cocklebur plant response rating (cocklebur; [7]): 0 | Cocklebur plant response rating (cocklebur; [8]): 0 | Plant response rating, Cocklebur (cocklebur; [9]): 0 | Plant response rating, Cocklebur (cocklebur; [10]): 0 | Cocklebur plant response rating (cocklebur; [12]): 2 | Plant response rating, Sugarbeets (sugar beet; [5]): 0 | Sugarbeets plant response rating (sugar beet; [6]): 0 | Sugarbeets plant response rating (sugar beet; [7]): 0 | Sugarbeets plant response rating (sugar beet; [8]): 3 | Plant response rating, Sugarbeets (sugar beet; [9]): 6 | Plant response rating, Sugarbeets (sugar beet; [10]): 7 | Sugarbeets plant response rating (sugar beet; [12]): 4 | Nutsedge plant response rating (purple nutsedge; [6]): 0 | Nutsedge plant response rating (purple nutsedge; [7]): 0 | Nutsedge plant response rating (purple nutsedge; [8]): 0 | Plant response rating, Nutsedge (purple nutsedge; [9]): 0 | Nutsedge plant response rating (purple nutsedge; [12]): 0 | Plant response rating, Rape (rape; [5]): 0 | Rape plant response rating (rape; [6]): 0 | Rape plant response rating (rape; [7]): 4 | Rape plant response rating (rape; [8]): 6 | Plant response rating, Rape (rape; [9]): 8 | Plant response rating, Rape (rape; [10]): 9 | Rape plant response rating (rape; [12]): 4 | Plant response rating, Corn (corn; [5]): 0 | Corn plant response rating (corn; [6]): 0 | Corn plant response rating (corn; [11]): 0 | Corn plant response rating (corn; [7]): 0 | Corn plant response rating (corn; [8]): 0 | Plant response rating, Corn (corn; [9]): 0 | Plant response rating, Corn (corn; [10]): 3 | Corn plant response rating (corn; [12]): 3 | Plant response rating, Wild oats (wild oat; [5]): 0 | Wild oats plant response rating (wild oat; [6]): 0 | Wild oats plant response rating (wild oat; [7]): 3 | Wild oats plant response rating (wild oat; [8]): 5 | Plant response rating, Wild oats (wild oat; [9]): 7 | Plant response rating, Wild oats (wild oat; [10]): 8 | Wild oats plant response rating (wild oat; [12]): 5 | Plant response rating, Giant foxtail (giant foxtail; [5]): 2 | Giant foxtail plant response rating (giant foxtail; [6]): 4 | Giant foxtail plant response rating (giant foxtail; [11]): 8 | Giant foxtail plant response rating (giant foxtail; [7]): 9 | Giant foxtail plant response rating (giant foxtail; [8]): 10 | Plant response rating, Giant foxtail (giant foxtail; [9]): 10 | Plant response rating, Giant foxtail (giant foxtail; [10]): 10 | Giant foxtail plant response rating (giant foxtail; [12]): 9 | Plant response rating, Velvetleaf (velvetleaf; [5]): 0 | Velvetleaf plant response rating (velvetleaf; [6]): 2 | Velvetleaf plant response rating (velvetleaf; [7]): 0 | Velvetleaf plant response rating (velvetleaf; [8]): 0 | Plant response rating, Velvetleaf (velvetleaf; [9]): 4 | Plant response rating, Velvetleaf (velvetleaf; [10]): 7 | Velvetleaf plant response rating (velvetleaf; [12]): 7
